Data from US5053333A, “Protease” (M & D Research Co., Ltd., priority 1988, dated 1991).
Peptide text beside a SMILES is read from it. * marks the point of attachment. AMC = Cc1cc(=O)oc2cc(N*)ccc12; Boc = CC(C)(C)OC(=O)*; OBn = c1ccc(CO*)cc1

Tests used:
[1] = test system: protease A; assay: Activation and inhibition of protease A (stated properties); assay type: biochemical, Sporobolomyces odrus IFO 1597; details: statement in words
Method: The enzymes was incubated in the absence of any substrate in standard reaction mixtures containing various inhibitors at 25° C. for 30 minutes. After adding the substrate, the residual activity of each enzyme was determined.
The enzyme was reacted in the standard reaction mixture while varying the type and concentration of surfactants.
The activity of the enzyme was determined in the presence of 0.1% of EDTA while varying the concentration of CaCl2. […] The concentration of free CaCl2 was calculated from the apparent dissociation constant (K1) of EDTA for CaCl2 (log K1 =7.3).

[2] = test system: protease B; assay: Activation and inhibition of protease B (stated properties); assay type: biochemical, Kluyveromyces lactis IFO 1903; details: statement in words
[3] = test system: Benz-I (protease specific for basic amino acid residue); assay type: biochemical, Kluyveromyces lactis IFO 1903; details: Benz-I treated with 10 mM EDTA, dialyzed; reaction mixture with 0.5 mM metal ion; control lot = 100
Method: Benz-I was incubated in the presence of 10 mM of EDTA at 4° C. for one hour. When the enzyme was completely inactivated, the culture was dialyzed against 10 mM tris hydrochloride buffer solution (pH 7.0) containing 0.2% of Lubrol PX to thereby completely remove the EDTA. The enzyme mixture thus dialyzed was examined with respect to the recovery of the activity in reaction mixtures containing 0.5 mM of various metal ions.

[4] = test system: protease specific for basic amino acid residue from Sporobolomyces odrus IFO 1597; assay type: biochemical; details: EDTA treatment +; reaction system EDTA (1 mM) +; metal 1.5 mM, 30° C. five minutes
Method: The enzyme was treated in the standard reaction mixture containing 1 mM of EDTA and free from any substrate at 25° C. for 30 minutes. Various metal ions were added thereto each in such an amount as to give a concentration of 1.5 mM and the mixture was incubated at 30° C. for five minutes. Then the activity of each case was determined.

[5] = test system: Benz-II (protease specific for basic amino acid residue); assay: Substrate specificity of Benz-II with fluorescent substrates; assay type: biochemical, Kluyveromyces lactis IFO 1903; details: activity for Boc-Gln-Arg-Arg-MCA being 100; standard conditions
Method: (§1) 1 ml of a reaction mixture containing 50 μmol of Tris-hydrochloride buffer (pH 7.0), 10 mg of Lubrol PX, 0.5 μmol of calcium chloride, 0.1 μmol of Boc-Gln-Arg-Arg-MCA, wherein Boc represents a t-butyloxycarbonyl group while MCA represents 4-methylcoumarin-7-amide and the enzyme is allowed to react at 30° C. The fluorescence (excition wavelength: 380 nm, emmision wavelength: 460 nm) originating from the 7-amino-4-methylcoumarin (AMC) thus formed is monitored with the lapse of time. The amount of the enzyme activity capable of catalyzing the release of 1 n mol of AMC per one minute is defined as 1 U. The specific activity is represented by U per mg of protein. The amount of the protein is determined by measurement the absorbance at […] as E^1% of protein being assumed to be 10.
(§2) The activities of Benz-I and Benz-II were determined under standard conditions with the use of various fluorescent substrates. The activity for each substrate was expressed by relative activity with the activity for Boc-Gln-Arg-Arg-MCA being 100.

[6] = test system: protease specific for basic amino acid residue from Sporobolomyces odrus IFO 1597; assay: Substrate specificity of Sporobolomyces protease with fluorescent substrates; assay type: biochemical; details: activity for Boc-Gln-Arg-Arg-MCA being 100; standard conditions
Method: A reaction mixture containing 50 μmol of tris hydrochloride buffer solution (pH 7.0), 10 mg of Lubrol PX, 0.5 μmol of calcium chloride, 0.1 μmol of Boc-Gln-Arg-Arg-MCA, wherein Boc represents a t-butyloxycalbonyl group while MCA represents 4-methylcoumarin-7-amide and the enzyme is allowed to react at 30° C. The fluorescence (excition wavelength: 380 nm, emission wavelength: 460 nm) originating from the 7-amino-4-methylcoumarin (AMC) thus formed is monitored. The amount of the enzyme capable of catalyzing the release of 1 nmol of AMC per one minute is defined as 1 U.
The activities of the enzyme for various fluorescent substrates were determined under standard reaction conditions.

[7] = test system: Benz-I (protease specific for basic amino acid residue); assay: Substrate specificity of Benz-I with fluorescent substrates; assay type: biochemical, Kluyveromyces lactis IFO 1903; details: activity for Boc-Gln-Arg-Arg-MCA being 100; standard conditions
Method: as §1, §2

[8] = test system: protease specific for basic amino acid residue from Sporobolomyces odrus IFO 1597; assay: Behavior of Sporobolomyces protease against various inhibitors (residual activity); assay type: biochemical; details: 25° C. 30 minutes
[9] = test system: Benz-I (protease specific for basic amino acid residue); assay: Behavior of Benz-I against various inhibitors (residual activity); assay type: biochemical, Kluyveromyces lactis IFO 1903; details: 25° C. 30 minutes, control lot = 100
[10] = test system: Benz-II (protease specific for basic amino acid residue); assay: Behavior of Benz-II against various inhibitors (residual activity); assay type: biochemical, Kluyveromyces lactis IFO 1903; details: 25° C. 30 minutes, control lot = 100

[Ca+2].[Cl-].[Cl-] [calcium chloride]
activation of protease A [1]: best activated
activation of protease B [2]: activated
Relative activity [3]: 93.1%
Relative activity [4]: 107%

[Cl][Ni][Cl] [nickel chloride]
Relative activity [3]: 16.1%
Relative activity [4]: 58%

Cc1cc(=O)oc2cc(NC(=O)[C@H](CCCNC(=N)N)NC(=O)[C@H](CCCCN)NC(=O)[C@H](CC(C)C)NC(=O)OC(C)(C)C)ccc12 [Boc--Leu--Lys--Arg--MCA] (Boc-Leu-Lys-Arg-{AMC})
Relative activity of Benz-II for substrate [5]: 127
Activity (relative) for substrate [6]: 75%
Relative activity of Benz-I for substrate [7]: 123

O=C(O)c1cc[c]([Hg][Cl])cc1 [p-chloromercuribenzoic acid]
relative activity (residual) ([8]; Ca2+ +, inhibitor 50 μM): 36%
inhibition of protease A [1]: inhibited
inhibition of protease B [2]: inhibited
Residual activity of Benz-I ([9]; inhibitor 50 μM): 1
Residual activity of Benz-II ([10]; inhibitor 50 μM): 3

[Cl][Mn][Cl] [manganese chloride]
Relative activity [3]: 33.9%
Relative activity [4]: 53%

Cc1cc(=O)oc2cc(NC(=O)[C@H](CCCNC(=N)N)NC(=O)[C@H](CCCCN)NC(=O)CNC(=O)OC(C)(C)C)ccc12 [Boc--Gly--Lys--Arg--MCA] (Boc-Gly-Lys-Arg-{AMC})
Relative activity of Benz-II for substrate [5]: 123
Activity (relative) for substrate [6]: 59%
Relative activity of Benz-I for substrate [7]: 120

O=S(=O)([O-])[O-].[Cu+2] [copper sulfate]
relative activity (residual) ([8]; Ca2+ +, inhibitor 1 mM): 2%
inhibition of protease A [1]: inhibited
inhibition of protease B [2]: inhibited
Residual activity of Benz-I ([9]; inhibitor 1 mM): 0.2
Residual activity of Benz-II ([10]; inhibitor 1 mM): 0.6

[Cl][Hg][Cl] [mercury chloride]
relative activity (residual) ([8]; Ca2+ +, inhibitor 1 mM): 0%
inhibition of protease A [1]: inhibited
inhibition of protease B [2]: inhibited
Residual activity of Benz-I ([9]; inhibitor 1 mM): 0
Residual activity of Benz-II ([10]; inhibitor 1 mM): 0

[Cl][Co][Cl] [cobalt chloride]
Relative activity [3]: 21.1%
Relative activity [4]: 57%

Cc1cc(=O)oc2cc(NC(=O)[C@H](CCCNC(=N)N)NC(=O)[C@@H]3CCCN3C(=O)[C@H](CC(=O)OCc3ccccc3)NC(=O)OC(C)(C)C)ccc12 [Boc--Asp(OBzl)--Pro--Arg--MCA] (Boc-Asp(OBn)-Pro-Arg-{AMC})
Relative activity of Benz-II for substrate [5]: 7.8
Activity (relative) for substrate [6]: 5%
Relative activity of Benz-I for substrate [7]: 12.3

Cc1cc(=O)oc2cc(NC(=O)[C@H](CCCNC(=N)N)NC(=O)[C@H](CCCNC(=N)N)NC(=O)[C@H](CC(C)C)NC(=O)OC(C)(C)C)ccc12 [Boc--Leu--Arg--Arg--MCA] (Boc-Leu-Arg-Arg-{AMC})
Relative activity of Benz-II for substrate [5]: 156
Activity (relative) for substrate [6]: 115%
Relative activity of Benz-I for substrate [7]: 159

Cc1cc(=O)oc2cc(NC(=O)[C@H](CCCNC(=N)N)NC(=O)[C@@H]3CCCN3C(=O)CNC(=O)[C@H](C)NC(=O)OC(C)(C)C)ccc12 [Boc--Ala--Gly--Pro--Arg--MCA] (Boc-AGPR-{AMC})
Relative activity of Benz-II for substrate [5]: 1.6
Activity (relative) for substrate [6]: 1%
Relative activity of Benz-I for substrate [7]: 1.9

O=C(O)CN(CCOCCOCCN(CC(=O)O)CC(=O)O)CC(=O)O [ethylene glycol bis(2-aminoethyl ether)tetraacetic acid]
relative activity (residual) ([8]; Ca2+ --, inhibitor 1 mM): 10%
inhibition of protease A [1]: inhibited
inhibition of protease B [2]: inhibited
Residual activity of Benz-I ([9]; inhibitor 1 mM): 53
Residual activity of Benz-I ([9]; inhibitor 5 mM): 12
Residual activity of Benz-II ([10]; inhibitor 1 mM): 43
Residual activity of Benz-II ([10]; inhibitor 5 mM): 12

N=C(N)c1ccc(CS(=O)(=O)F)cc1 [p-amidino-PMSF, p-amidinophenylmethanesulfonyl fluoride]
relative activity (residual) ([8]; Ca2+ +, inhibitor 1 mM): 10%
inhibition of protease A [1]: inhibited
inhibition of protease B [2]: inhibited
Residual activity of Benz-I ([9]; inhibitor 1 mM): 0
Residual activity of Benz-II ([10]; inhibitor 1 mM): 0

Cc1cc(=O)oc2cc(NC(=O)[C@H](CCCCN)NC(=O)[C@H](CCCCN)NC(=O)[C@H](CCC(=O)O)NC(=O)OC(C)(C)C)ccc12 [Boc--Glu--Lys--Lys--MCA] (Boc-Glu-Lys-Lys-{AMC})
Relative activity of Benz-II for substrate [5]: 0.9
Activity (relative) for substrate [6]: 0%
Relative activity of Benz-I for substrate [7]: 1.3

[Cl-].[Cl-].[Zn+2] [zinc chloride]
relative activity (residual) ([8]; Ca2+ +, inhibitor 1 mM): 1%
inhibition of protease A [1]: inhibited
inhibition of protease B [2]: inhibited
Residual activity of Benz-I ([9]; inhibitor 1 mM): 7
Residual activity of Benz-II ([10]; inhibitor 1 mM): 7

[Cl-].[Cl-].[Mg+2] [magnesium chloride]
Relative activity [3]: 43.6%
Relative activity [4]: 12%

Cc1cc(=O)oc2cc(NC(=O)[C@H](CCCNC(=N)N)NC(=O)[C@@H]3CCCN3C(=O)[C@@H](NC(=O)OC(C)(C)C)C(C)C)ccc12 [Boc--Val--Pro--Arg--MCA] (Boc-Val-Pro-Arg-{AMC})
Relative activity of Benz-II for substrate [5]: 88.0
Activity (relative) for substrate [6]: 26%
Relative activity of Benz-I for substrate [7]: 107

Cc1cc(=O)oc2cc(NC(=O)[C@H](CCCNC(=N)N)NC(=O)[C@H](CCCNC(=N)N)NC(=O)CNC(=O)OC(C)(C)C)ccc12 [Boc--Gly--Arg--Arg--MCA]
Relative activity of Benz-II for substrate [5]: 19.7
Activity (relative) for substrate [6]: 32%
Relative activity of Benz-I for substrate [7]: 19.8

Cc1cc(=O)oc2cc(NC(=O)[C@H](CCCNC(=N)N)NC(=O)[C@@H](NC(=O)[C@H](CO)NC(=O)[C@H](CC(C)C)NC(=O)OC(C)(C)C)[C@@H](C)O)ccc12 [Boc--Leu--Ser--Thr--Arg--MCA] (Boc-LSTR-{AMC})
Relative activity of Benz-II for substrate [5]: 97.0
Activity (relative) for substrate [6]: 2%
Relative activity of Benz-I for substrate [7]: 127

Triton X-100
activation of protease A [1]: activated
activation of protease B [2]: activated
